The results in this text go back to US9427468B2, “Compositions and methods for diagnosing and treating community-acquired methicillin-resistant Staphylococcus aureus” (priority 2007, dated 2016).

Holding throughout (format): cell-based, Staphylococcus aureus
For one experiment, the system named is MW2 ex Δpbp3/4. Briefly: MIC by microdilution (CLSI). An excerpt: (§1) Experiments were first performed using mutants of various PBPs. In-frame deletion mutants of the genes encoding PBP3 (MW1504) and PBP4 (MW0604), pbp3 and pbp4 respectively, were generated in the CA-MRSA strain MW2 and in HA-MRSA strain COL using the temperature-sensitive allelic replacement vector pMAD (Arnaud, M. et al. 2004. Appl. Environ. Microbiol. 70:6887-6891). PBP4 was also deleted in the HA-MRSA strains Mu50 and N315 and in the CA-MRSA strain USA300. […] Minimum inhibitory concentrations (MICs) were determined according to the Clinical and Laboratory Standards Institute and are a standard method for defining antibiotic efficacy against different organisms. Bacteria, grown to an OD650=1, were added to cation-supplemented Mueller Hinton broth (CSMHB) to achieve a final concentration of 5×10^5 CFU/ml.
(§2) Minimum inhibitory concentrations and minimum bactericidal concentrations (MIC and MBC, respectively) were determined for each isolate in triplicate by microdilution techniques with an inoculum of 5×10^5 CFU/ml according to the Clinical and Laboratory Standards Institute guidelines. Aliquots (5 μl) from clear wells were plated onto TSA drug-free plates for the determination of MBCs, followed by incubation at 37° C. for 24 and 48 hours. For the mutant strains, each one of the three clones was tested. MIC data were reported as median values from at least three independent experiments for each antibiotic. Also, strains containing pEPSA5-based plasmids were tested with and without xylose induction, but chloramphenicol was not added to avoid interference with beta-lactam resistance evaluation. […] The correct inocula were confirmed by plating serial dilutions on agar.

Another experiment relates to Mu50 wild-type. Briefly: MIC by microdilution (CLSI).
Excerpt: as §1, §2
A general note: Broth dilution looks for growth in wells or tubes with falling amounts of substance.

The test system of a further experiment is MW2 (USA400) CA-MRSA. Briefly: Minimum bactericidal concentration (MBC). Conditions: for combination: MBC of oxacillin with ¼ MIC cefoxitin. The method, then: as §2
The next experiment concerns USA300 CA-MRSA. Briefly: Minimum bactericidal concentration (MBC). To be noted: for combination: MBC of oxacillin with ¼ MIC cefoxitin. The method, then: as §2
The test system of the next experiment is MW2 (USA400) wild-type. Briefly: MIC by microdilution (CLSI).
Excerpt: as §1, with “The present invention was described based on a series of experiments examining the biological basis for CA-MRSA strains versus HA-MRSA strains, focusing on the role of PBPs in CA-MRSA and generally in β-lactam resistance. Experiments” for “Experiments”
(§3) Although PBP4, similar to PBP2A, binds with low affinity to many β-lactams, PBP4 binds cefoxitin, a semi-synthetic β-lactam derived from cephamycin C, with high affinity (Nair, S. R. and C. E. Cherubin. 1978. Antimicrob. Agents Chemother. 14:866-875).
as §2

Another experiment concerns COL wild-type. Briefly: MIC by microdilution (CLSI).
Excerpt: as §1, with “The present invention was described based on a series of experiments examining the biological basis for CA-MRSA strains versus HA-MRSA strains, focusing on the role of PBPs in CA-MRSA and generally in β-lactam resistance. Experiments” for “Experiments”
as §3, §2

Another experiment concerns USA300 wild-type. Briefly: MIC by microdilution (CLSI).
Excerpt: as §1, with “The present invention was described based on a series of experiments examining the biological basis for CA-MRSA strains versus HA-MRSA strains, focusing on the role of PBPs in CA-MRSA and generally in β-lactam resistance. Experiments” for “Experiments”
as §3, §2

The mark [1] stands for this setting: Staphylococcus aureus, read-out: MICs.

Converted amounts (≈) assume the structure as drawn.

Regarding `CO[C@@]1(NC(=O)Cc2cccs2)C(=O)N2C(C(=O)O)=C(COC(N)=O)CS[C@@H]21` [CX, cefoxitin], the MIC in the experiment on MW2 ex Δpbp3/4 (setting [1]) was found to be 32 µg/mL (≈ 74.9 µM); in the experiment on Mu50 wild-type (setting [1]) it was 256 µg/mL (≈ 599 µM); in the experiment with MW2 (USA400) wild-type (Staphylococcus aureus, USA400, read-out: MICs) it was 64 µg/mL (≈ 150 µM); with COL wild-type (setting [1]) it was 128 µg/mL (≈ 299 µM); with USA300 wild-type (Staphylococcus aureus, USA300, read-out: MICs) it was 64 µg/mL (≈ 150 µM). The “MBC 48 hr” value with MW2 (USA400) CA-MRSA and in the experiment on USA300 CA-MRSA was above 256 µg/mL each time.

On to `Cc1onc(-c2ccccc2)c1C(=O)N[C@@H]1C(=O)N2[C@@H]1SC(C)(C)[C@@H]2C(=O)O` [OX, oxacillin], for which the MICs was 1 µg/mL against MW2 ex Δpbp3/4 (Table 1, MW2 ex Δpbp3/4); 256 µg/mL in the experiment on Mu50 wild-type (Table 1, Mu50 wild-type); 64 µg/mL with MW2 (USA400) wild-type (Table 1, MW2 (USA400) wild-type); 256 µg/mL with COL wild-type (Table 1, COL wild-type); 64 µg/mL against USA300 wild-type (Table 1, USA300 wild-type). The “MICs 48 hr” value in the experiment on Mu50 wild-type (Mu50, 48 hr, for combination: MIC of oxacillin with ¼ MIC cefoxitin) was found to be 256 µg/mL; in the experiment on MW2 (USA400) wild-type (MW2, 48 hr, for combinations: MIC of oxacillin with ¼ MIC of second drug), 64 µg/mL; in the experiment with COL wild-type (COL, 48 hr, for combination: MIC of oxacillin with ¼ MIC cefoxitin), 256 µg/mL; in the experiment on USA300 wild-type (USA300, 48 hr, for combinations: MIC of oxacillin with ¼ MIC of second drug), 64 µg/mL. In addition, the “MBC 48 hr” value in the experiment on MW2 (USA400) CA-MRSA and in the experiment with USA300 CA-MRSA was 256 µg/mL throughout.
